Source: publication PMC5522996, “Big conductance calcium‐activated potassium channel openers control spasticity without sedation” (British Journal of Pharmacology, 2017)

Legend:
EDG8 = molecular target: T1, EDG8 (Homo sapiens, UniProt Q9H228); assay: Receptor binding profile of VSN16R; conditions: 10µM VSN16R
T1 construct: purchased Cerep; Chantest; DiscoveRx; Multispan; MDS Pharma Services

NE transporter = molecular target: T2, NE transporter (Homo sapiens, UniProt P23975); assay: Receptor binding profile of VSN16R; conditions: 10µM VSN16R
T2 construct: purchased Cerep; Chantest; DiscoveRx; Multispan; MDS Pharma Services

NK2 = molecular target: T3, NK2 (Homo sapiens, UniProt P21452); assay: Receptor binding profile of VSN16R; conditions: 10µM VSN16R
T3 construct: purchased Cerep; Chantest; DiscoveRx; Multispan; MDS Pharma Services

normal animals = assay: Muscle tone in normal animals (resistance to flexion); type: in vivo, mouse; conditions: 40 mg·kg^−1 p.o.
CB1 = molecular target: T4, CB1 (Homo sapiens, UniProt P21554); assay: Receptor binding profile of VSN16R
T4 construct: purchased Cerep; Chantest; DiscoveRx; Multispan; MDS Pharma Services

BKCa channel = molecular target: T5, BKCa channel (Homo sapiens, UniProt Q12791+Q86W47); assay: Single‐channel inside‐out patch clamp, EA.hy926 cells; type: cell-based; conditions: 3 μM, inner surface of membrane, 40 mV, 0.3 μM free Ca^2+
T5 construct: host or cells: EA.hy926 endothelial cells
Method: The human EA.hy926 endothelial cells (ATCC, Manassas, USA) were grown in DMEM containing 10% FCS and 1% HAT (5 mM hypoxanthine, 20 μM aminopterin and 0.8 mM thymidine) and were maintained in an incubator at 37°C in 5% CO2 atmosphere (Bondarenko et al., 2013). Human HNC‐2 neuronal cells were obtained from ATCC. For experiments, cells were plated on glass coverslips. Single‐channel recordings were obtained from excised inside‐out membrane patches in symmetrical solutions using the patch‐clamp technique. All patch‐clamp experiments were performed at room temperature with the use of a water hydraulic micromanipulator (WR‐6, Narishige, Japan). […] The pipettes were filled with 140 mM KCl, 10 mM HEPES, 1 mM MgCl2, 5 mM EGTA and […] CaCl2 buffered to pH 7.2 by adding KOH. Cells were super‐perfused with a bath solution containing 140 mM NaCl, 5 mM KCl, 1.2 mM MgCl2, 10 mM HEPES, 10 mM glucose and 2.4 mM CaCl2. Following gigaseal formation, bath solution was switched to the following: 140 mM KCl, 10 mM HEPES, 1 mM MgCl2, 5 mM EGTA and a designated free Ca^2+ concentration, which was adjusted by adding different amounts of CaCl2 buffered to pH 7.2. (Bondarenko et al., 2011; Bondarenko et al., 2013). Single‐channel activity was expressed as NPo, where N represents the number of functional ion channels in the membrane patch and Po represents the open channel probability determined from idealized traces (Bondarenko et al., 2011). NPo was obtained from ≥20 s of continuous recording under each experimental condition. The effect of VSN16R was estimated after 3 min of continuous exposure to VSN16R‐containing solution. Data were analysed by ANOVA, and statistical significance was evaluated using Scheffés post hoc test of the Prism 5 software for Windows (GraphPad Software).

healthy humans = assay: Phase I single dose: coagulation, urinanalysis, vital signs, electrocardiograms; conditions: for Electrocardiogram Heart Rate / PR Duration / QRS Duration / QT Duration / RR Duration: Day 1; for Activated Partial Thrombin Time / Partial Prothrombin Time / Supine Diastolic Blood Pressure / Supine Pulse Rate / Supine Respiratory Rate / Supine Systolic Blood Pressure / Supine Temperature / Thrombin Time / Urinanalysis Ketones / Urinanalysis Specific Gravity / Urinanalysis pH / Urine Bilirubin / Urine Glucose / Urine Protein / Urine RBC: Day 2
EDG7 = molecular target: T6, EDG7 (Homo sapiens, UniProt Q9UBY5); assay: Receptor binding profile of VSN16R; conditions: 10µM VSN16R
T6 construct: purchased Cerep; Chantest; DiscoveRx; Multispan; MDS Pharma Services

GABA (non-selective) = assay: Receptor binding profile of VSN16R; parameters: species or system human; conditions: 10µM VSN16R
A2A = molecular target: T7, A2A (Homo sapiens, UniProt P29274); assay: Receptor binding profile of VSN16R; conditions: 10µM VSN16R
T7 construct: purchased Cerep; Chantest; DiscoveRx; Multispan; MDS Pharma Services

CYP450 2C19 = CYP450 2C19 (Homo sapiens, UniProt P33261)
Sequence of CYP450 2C19 (P33261 whole entry): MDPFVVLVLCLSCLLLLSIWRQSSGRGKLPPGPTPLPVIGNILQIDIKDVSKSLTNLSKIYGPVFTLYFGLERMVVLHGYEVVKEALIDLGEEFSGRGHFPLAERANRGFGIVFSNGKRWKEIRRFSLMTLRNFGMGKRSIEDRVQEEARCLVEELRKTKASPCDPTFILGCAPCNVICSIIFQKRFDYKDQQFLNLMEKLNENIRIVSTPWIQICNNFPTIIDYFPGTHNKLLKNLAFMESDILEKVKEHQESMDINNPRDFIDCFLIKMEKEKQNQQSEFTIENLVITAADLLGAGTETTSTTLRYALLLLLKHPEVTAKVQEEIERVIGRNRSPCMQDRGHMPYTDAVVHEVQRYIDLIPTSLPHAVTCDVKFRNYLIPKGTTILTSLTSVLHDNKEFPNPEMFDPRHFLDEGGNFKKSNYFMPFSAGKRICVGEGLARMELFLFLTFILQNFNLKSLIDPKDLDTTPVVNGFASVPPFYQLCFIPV
Description: IC50 Inhibition of substrate binding
Inhibition of binding of either 3-cyano-7-ethoxycoumarin, dibenzylfluorescein or 7-benzyoxy-4-
(trifluoromethyl) coumarin in human enzyme transfected BTI NN-5B1-4 cells or Sf9 insect cells or
inhibition of dextromethorphan substrate to CYP450 2D6 in liver microsomes.

T4 sequence (P21554 whole entry): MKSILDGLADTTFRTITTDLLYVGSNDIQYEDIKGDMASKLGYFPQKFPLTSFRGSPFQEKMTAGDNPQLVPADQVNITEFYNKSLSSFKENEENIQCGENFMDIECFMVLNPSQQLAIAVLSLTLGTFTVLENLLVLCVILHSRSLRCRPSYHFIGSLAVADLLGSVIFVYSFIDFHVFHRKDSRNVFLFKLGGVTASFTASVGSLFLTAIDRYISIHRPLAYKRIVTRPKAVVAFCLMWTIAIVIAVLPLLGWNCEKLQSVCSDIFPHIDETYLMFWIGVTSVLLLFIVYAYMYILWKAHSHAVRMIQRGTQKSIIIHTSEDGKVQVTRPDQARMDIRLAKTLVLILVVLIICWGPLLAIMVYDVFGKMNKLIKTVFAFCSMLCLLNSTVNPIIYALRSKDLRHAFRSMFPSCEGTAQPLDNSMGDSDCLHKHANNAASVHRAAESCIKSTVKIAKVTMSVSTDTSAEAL
T7 sequence (P29274 whole entry): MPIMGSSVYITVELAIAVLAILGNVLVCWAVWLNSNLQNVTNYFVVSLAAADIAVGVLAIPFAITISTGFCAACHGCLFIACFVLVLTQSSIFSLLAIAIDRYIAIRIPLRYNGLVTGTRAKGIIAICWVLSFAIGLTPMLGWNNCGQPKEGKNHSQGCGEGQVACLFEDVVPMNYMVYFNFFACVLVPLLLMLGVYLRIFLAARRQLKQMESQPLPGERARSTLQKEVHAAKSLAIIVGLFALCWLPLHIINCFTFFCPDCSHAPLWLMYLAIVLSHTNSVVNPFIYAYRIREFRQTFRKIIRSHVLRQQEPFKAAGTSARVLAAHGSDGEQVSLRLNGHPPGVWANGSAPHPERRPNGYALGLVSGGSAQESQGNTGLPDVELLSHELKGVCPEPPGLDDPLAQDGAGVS
T6 sequence (Q9UBY5 whole entry): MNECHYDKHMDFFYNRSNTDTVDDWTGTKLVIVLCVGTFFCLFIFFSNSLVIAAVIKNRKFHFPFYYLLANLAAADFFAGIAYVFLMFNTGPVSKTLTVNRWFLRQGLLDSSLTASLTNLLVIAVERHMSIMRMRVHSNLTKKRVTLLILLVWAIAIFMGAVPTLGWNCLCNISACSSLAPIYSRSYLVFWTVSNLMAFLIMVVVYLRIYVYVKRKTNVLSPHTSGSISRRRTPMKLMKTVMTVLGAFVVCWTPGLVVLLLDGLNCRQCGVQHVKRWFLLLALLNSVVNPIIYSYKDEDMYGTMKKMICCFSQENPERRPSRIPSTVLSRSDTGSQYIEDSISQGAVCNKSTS
T2 sequence (P23975 whole entry): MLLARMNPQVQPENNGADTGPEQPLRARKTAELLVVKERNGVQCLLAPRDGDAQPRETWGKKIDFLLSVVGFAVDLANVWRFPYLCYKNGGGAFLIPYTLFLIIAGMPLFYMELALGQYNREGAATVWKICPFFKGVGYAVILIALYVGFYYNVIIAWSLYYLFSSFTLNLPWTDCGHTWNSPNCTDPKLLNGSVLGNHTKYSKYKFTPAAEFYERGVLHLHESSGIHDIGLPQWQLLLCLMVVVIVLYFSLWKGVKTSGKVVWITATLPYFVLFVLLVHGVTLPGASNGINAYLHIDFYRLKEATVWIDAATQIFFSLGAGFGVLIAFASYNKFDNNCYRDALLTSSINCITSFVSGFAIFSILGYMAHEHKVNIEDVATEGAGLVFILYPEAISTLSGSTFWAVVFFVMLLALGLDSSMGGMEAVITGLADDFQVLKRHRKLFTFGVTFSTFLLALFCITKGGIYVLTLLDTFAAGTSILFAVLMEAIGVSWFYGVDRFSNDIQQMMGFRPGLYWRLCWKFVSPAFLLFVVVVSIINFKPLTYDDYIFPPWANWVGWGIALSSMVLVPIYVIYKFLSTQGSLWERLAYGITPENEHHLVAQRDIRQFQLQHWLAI
T1 sequence (Q9H228 whole entry): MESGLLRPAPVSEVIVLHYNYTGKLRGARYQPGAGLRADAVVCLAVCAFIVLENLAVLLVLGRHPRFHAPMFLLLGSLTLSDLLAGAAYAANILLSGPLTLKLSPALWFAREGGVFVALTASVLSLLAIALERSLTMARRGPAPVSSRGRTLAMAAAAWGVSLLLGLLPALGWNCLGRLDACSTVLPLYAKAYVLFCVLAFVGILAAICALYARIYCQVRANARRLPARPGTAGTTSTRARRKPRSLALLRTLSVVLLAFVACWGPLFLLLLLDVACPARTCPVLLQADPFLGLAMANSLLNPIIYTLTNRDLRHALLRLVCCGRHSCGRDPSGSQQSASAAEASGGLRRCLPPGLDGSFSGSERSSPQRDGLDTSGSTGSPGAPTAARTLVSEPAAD
T5 sequence (Q12791 whole entry): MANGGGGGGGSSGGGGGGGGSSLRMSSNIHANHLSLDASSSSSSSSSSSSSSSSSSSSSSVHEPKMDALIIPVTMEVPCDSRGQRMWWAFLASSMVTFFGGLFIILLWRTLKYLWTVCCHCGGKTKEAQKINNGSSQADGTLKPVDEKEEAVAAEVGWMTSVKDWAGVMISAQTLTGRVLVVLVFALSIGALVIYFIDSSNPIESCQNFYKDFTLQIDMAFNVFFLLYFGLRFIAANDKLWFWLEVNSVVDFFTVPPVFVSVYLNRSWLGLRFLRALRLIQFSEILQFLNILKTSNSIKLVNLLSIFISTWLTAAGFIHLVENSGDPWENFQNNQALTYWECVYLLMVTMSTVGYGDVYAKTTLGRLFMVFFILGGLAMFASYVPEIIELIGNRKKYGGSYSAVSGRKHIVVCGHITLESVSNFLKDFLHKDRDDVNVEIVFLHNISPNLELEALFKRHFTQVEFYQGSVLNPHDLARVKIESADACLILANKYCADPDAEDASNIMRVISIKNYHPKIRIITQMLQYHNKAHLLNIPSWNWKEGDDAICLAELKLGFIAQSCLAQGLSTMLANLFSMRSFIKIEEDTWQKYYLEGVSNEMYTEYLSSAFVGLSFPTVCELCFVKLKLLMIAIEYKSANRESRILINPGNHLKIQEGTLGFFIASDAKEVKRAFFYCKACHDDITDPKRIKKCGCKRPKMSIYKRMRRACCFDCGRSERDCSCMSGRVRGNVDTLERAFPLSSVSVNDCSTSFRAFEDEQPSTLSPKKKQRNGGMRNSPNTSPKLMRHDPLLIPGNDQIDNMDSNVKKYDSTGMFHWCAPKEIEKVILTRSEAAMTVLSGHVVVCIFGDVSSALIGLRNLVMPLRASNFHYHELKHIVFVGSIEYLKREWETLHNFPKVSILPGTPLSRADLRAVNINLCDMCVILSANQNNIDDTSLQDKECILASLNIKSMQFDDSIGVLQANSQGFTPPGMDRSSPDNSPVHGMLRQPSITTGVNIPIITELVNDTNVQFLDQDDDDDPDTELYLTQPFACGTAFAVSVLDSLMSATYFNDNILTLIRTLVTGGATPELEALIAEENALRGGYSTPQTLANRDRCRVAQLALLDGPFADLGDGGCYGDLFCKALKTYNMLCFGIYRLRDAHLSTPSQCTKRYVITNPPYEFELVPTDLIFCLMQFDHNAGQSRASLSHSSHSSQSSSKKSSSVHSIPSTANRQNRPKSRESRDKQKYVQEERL
T5 sequence (Q86W47 whole entry): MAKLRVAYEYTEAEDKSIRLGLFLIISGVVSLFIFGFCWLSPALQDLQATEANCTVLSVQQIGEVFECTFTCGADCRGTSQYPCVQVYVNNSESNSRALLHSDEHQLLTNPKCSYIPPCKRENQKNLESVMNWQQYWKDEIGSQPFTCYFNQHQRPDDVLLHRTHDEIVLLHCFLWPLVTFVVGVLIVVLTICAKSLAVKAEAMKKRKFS
T3 sequence (P21452 whole entry): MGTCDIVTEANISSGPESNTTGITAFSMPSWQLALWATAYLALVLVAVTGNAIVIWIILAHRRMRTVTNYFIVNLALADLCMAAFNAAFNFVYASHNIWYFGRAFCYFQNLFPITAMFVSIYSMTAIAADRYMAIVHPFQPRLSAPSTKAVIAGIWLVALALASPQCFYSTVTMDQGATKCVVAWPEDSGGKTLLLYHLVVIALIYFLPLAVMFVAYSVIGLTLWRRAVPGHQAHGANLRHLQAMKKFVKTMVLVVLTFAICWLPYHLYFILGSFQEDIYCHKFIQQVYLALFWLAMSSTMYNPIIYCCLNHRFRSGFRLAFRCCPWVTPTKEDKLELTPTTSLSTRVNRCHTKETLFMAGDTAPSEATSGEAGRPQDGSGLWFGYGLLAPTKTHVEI

C[C@H](CO)NC(=O)c1cccc(/C=C\CCCC(=O)N(C)C)c1 [VSN16R]
Activity (EDG8): Negligible Activity | Activity (NE transporter): Negligible Activity | Activity (NK2): Negligible Activity | Change (increase) of muscle tone from baseline (normal animals): 9.1 ± 6.3% | Activity (CB1; 10µM VSN16R): Negligible Activity | Binding or agonism at CB1 receptors (CB1; receptor‐transfected cell line‐based assays): does not bind to or agonize | Single BKCa channel activity (BKCa channel): facilitated single BKCa channel activity | Electrocardiogram Heart Rate (healthy humans; 25mg): 59 ± 12 beats per min | PR Duration (healthy humans; 25mg): 184 ± 20 ms | QRS Duration (healthy humans; 25mg): 98 ± 9 ms | QT Duration (healthy humans; 25mg): 388 ± 26 ms | RR Duration (healthy humans; 25mg): 1044 ± 185 ms | Activated Partial Thrombin Time (healthy humans; 25mg): 26.4 ± 0.9 s | Partial Prothrombin Time (healthy humans; 25mg): 10.8 ± 0.3 s | Supine Diastolic Blood Pressure (healthy humans; 25mg): 65 ± 4 mmHg | Supine Pulse Rate (healthy humans; 25mg): 61 ± 15 beats per min | Supine Respiratory Rate (healthy humans; 25mg): 14 ± 2 Breath/min | Supine Systolic Blood Pressure (healthy humans; 25mg): 117 ± 9 mmHg | Supine Temperature (healthy humans; 25mg): 36.6 ± 0.2 ˚C | Thrombin Time (healthy humans; 25mg): 16.2 ± 0.8 s | Urinanalysis Ketones (healthy humans; 25mg): 0.0 ± 0.0 mmol/L | Urinanalysis Specific Gravity (healthy humans; 25mg): 1.016 ± 0.012 | Urinanalysis pH (healthy humans; 25mg): 7.0 ± 0.6 | Urine Bilirubin (healthy humans; 25mg): 0.0 ± 0.0 µmol/L | Urine Glucose (healthy humans; 25mg): 0.0 ± 0.0 mmol/L | Urine Protein (healthy humans; 25mg): 0.08 ± 0.10 g/L | Urine RBC (healthy humans; 25mg): 0.0 ± 0.0 mg/L | Electrocardiogram Heart Rate (healthy humans; 800mg): 67 ± 8 beats per min | PR Duration (healthy humans; 800mg): 164 ± 16 ms | QRS Duration (healthy humans; 800mg): 98 ± 7 ms | QT Duration (healthy humans; 800mg): 383 ± 19 ms | RR Duration (healthy humans; 800mg): 903 ± 122 ms | Activated Partial Thrombin Time (healthy humans; 800mg): 24.9 ± 1.9 s | Partial Prothrombin Time (healthy humans; 800mg): 10.9 ± 0.5 s | Supine Diastolic Blood Pressure (healthy humans; 800mg): 71 ± 9 mmHg | Supine Pulse Rate (healthy humans; 800mg): 65 ± 9 beats per min | Supine Respiratory Rate (healthy humans; 800mg): 16 ± 2 Breath/min | Supine Systolic Blood Pressure (healthy humans; 800mg): 118 ± 10 mmHg | Supine Temperature (healthy humans; 800mg): 36.6 ± 0.2 ˚C | Thrombin Time (healthy humans; 800mg): 15.9 ± 1.2 s | Urinanalysis Ketones (healthy humans; 800mg): 0.0 ± 0.0 mmol/L | Urinanalysis Specific Gravity (healthy humans; 800mg): 1.017 ± 0.009 | Urinanalysis pH (healthy humans; 800mg): 6.0 ± 0.4 | Urine Bilirubin (healthy humans; 800mg): 0.0 ± 0.0 µmol/L | Urine Glucose (healthy humans; 800mg): 0.0 ± 0.0 mmol/L | Urine Protein (healthy humans; 800mg): 0.06 ± 0.08 g/L | Urine RBC (healthy humans; 800mg): 0.0 ± 0.0 mg/L | Activity (EDG7): Negligible Activity | Activity (GABA (non-selective)): Negligible Activity | Activity (A2A): Negligible Activity | IC50 (CYP450 2C19): > 10 µM
